Measured values reported in US10214531B2 (Institute for Drug Discovery, LLC, priority 2013, dated 2019).
Counter-ions that a name gives are not always drawn.

Biological target: recombinant human AMCase (Homo sapiens, UniProt Q9BZP6)
Test: Human AMCase Activity Assay
Format: biochemical
Conditions: recombinant hAMCase, 4-methylumbelliferyl chitobioside substrate, citrate buffer pH 5.2, 37° C., 60 minutes; read-out: Activity (IC50 value key)
Summary of the method: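 Recombinant human enzyme with fluorogenic 4-methylumbelliferyl β-D-N,N′-diacetylchitobioside substrate in citrate buffer, pH 5.2, 60 min at 37 °C in the dark with shaking. Read-out is 4MU fluorescence at 460 nm.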

recombinant human AMCase, sequence (Q9BZP6 22-476): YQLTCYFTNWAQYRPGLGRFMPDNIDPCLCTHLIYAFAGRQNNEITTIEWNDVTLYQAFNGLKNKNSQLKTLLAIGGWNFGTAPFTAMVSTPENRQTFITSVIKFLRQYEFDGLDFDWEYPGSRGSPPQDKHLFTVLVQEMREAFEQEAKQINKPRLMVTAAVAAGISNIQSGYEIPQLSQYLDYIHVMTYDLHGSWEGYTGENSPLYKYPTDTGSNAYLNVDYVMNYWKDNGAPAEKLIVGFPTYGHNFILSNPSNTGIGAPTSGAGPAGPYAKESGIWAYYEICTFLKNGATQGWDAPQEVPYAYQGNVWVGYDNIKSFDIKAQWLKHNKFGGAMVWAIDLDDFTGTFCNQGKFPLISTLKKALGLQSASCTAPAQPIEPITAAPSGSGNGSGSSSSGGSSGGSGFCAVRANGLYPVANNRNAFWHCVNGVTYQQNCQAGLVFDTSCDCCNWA

SMILES | IC50 [µM]
CC(Cc1ccc(Cl)cc1)N(Cc1ccccc1)C1CCN(c2nc(N)n[nH]2)CC1 (stereo not shown) [Example 159, 1-(3-amino-1H-1,2,4-triazol-5-yl)-N-benzyl-N-(1-(4-chlorophenyl)propan-2-yl)piperidin-4-amine dihydrochloride] | < 0.1
CCC(Cc1ccc(Cl)cc1)N(C)C1CCN(c2nc(N)n[nH]2)CC1 (stereo not shown) [Example 160, 1-(3-amino-1H-1,2,4-triazol-5-yl)-N-(1-(4-chlorophenyl)butan-2-yl)-N-methylpiperidin-4-amine] | 1 to 10
Nc1n[nH]c(N2CCC(N(CCc3ccc(Cl)cc3)Cc3ccc(Cl)cc3Cl)CC2)n1 [Example 163, 1-(3-amino-1H-1,2,4-triazol-5-yl)-N-(4-chlorophenethyl)-N-(2,4-dichlorobenzyl)piperidin-4-amine] | < 0.1
Nc1n[nH]c(N2CCC(N(CCc3ccc(Cl)cc3)Cc3ccccc3CO)CC2)n1 [Example 164, (2-(((1-(3-amino-1H-1,2,4-triazol-5-yl)piperidin-4-yl)(4-chlorophenethyl)amino)methyl)phenyl)methanol dihydrochloride] | < 0.1
Nc1n[nH]c(N2CCC(N(CCc3ccc(Br)cc3)Cc3cccc4cnccc34)CC2)n1 [Example 168, 1-(3-amino-1H-1,2,4-triazol-5-yl)-N-(4-bromophenethyl)-N-(isoquinolin-5-ylmethyl)piperidin-4-amine] | < 0.1
CN(CCc1ccccc1C(F)(F)F)C1CCN(c2nc(N)n[nH]2)CC1 [Example 169, 1-(3-amino-1H-1,2,4-triazol-5-yl)-N-methyl-N-(2-(trifluoromethyl)phenethyl)piperidin-4-amine] | 1 to 10
COc1ccc(CCN(C)C2CCN(c3nc(N)n[nH]3)CC2)cc1OC [Example 173, 1-(3-amino-1H-1,2,4-triazol-5-yl)-N-(3,4-dimethoxyphenethyl)-N-methylpiperidin-4-amine] | 10 to 100
CN(CCc1ccccc1OC(F)(F)F)C1CCN(c2nc(N)n[nH]2)CC1 [Example 174, 1-(3-amino-1H-1,2,4-triazol-5-yl)-N-methyl-N-(2-(trifluoromethoxy)phenethyl)piperidin-4-amine] | 10 to 100
CN(CCc1ccc(Cl)c(Cl)c1)C1CCN(c2nc(N)n[nH]2)CC1 [Example 176, 1-(3-amino-1H-1,2,4-triazol-5-yl)-N-(3,4-dichlorophenethyl)-N-methylpiperidin-4-amine] | 1 to 10
COc1cccc(CCN(C)C2CCN(c3nc(N)n[nH]3)CC2)c1OC [Example 177, 1-(3-amino-1H-1,2,4-triazol-5-yl)-N-(2,3-dimethoxyphenethyl)-N-methylpiperidin-4-amine] | 10 to 100
Cc1ccccc1CCN(C)C1CCN(c2nc(N)n[nH]2)CC1 [Example 179, 1-(3-amino-1H-1,2,4-triazol-5-yl)-N-methyl-N-(2-methylphenethyl)piperidin-4-amine] | 10 to 100
CN(CCc1ccc(F)cc1)C1CCN(c2nc(N)n[nH]2)CC1 [Example 183, 1-(3-amino-1H-1,2,4-triazol-5-yl)-N-(4-fluorophenethyl)-N-methylpiperidin-4-amine] | 1 to 10
CN(CCc1c(Cl)cccc1Cl)C1CCN(c2nc(N)n[nH]2)CC1 [Example 184, 1-(3-amino-1H-1,2,4-triazol-5-yl)-N-(2,6-dichlorophenethyl)-N-methylpiperidin-4-amine] | 1 to 10
Nc1n[nH]c(N2CCN(CCOc3c(Cl)cccc3Cl)CC2)n1 [Example 194, 5-(4-(2-(2,6-dichlorophenoxy)ethyl)piperazin-1-yl)-1H-1,2,4-triazol-3-amine] | 10 to 100
Nc1n[nH]c(N2CCC(C(=O)NCc3cccc4ccccc34)CC2)n1 [Example 195, 1-(3-amino-1H-1,2,4-triazol-5-yl)-N-(naphthalen-1-ylmethyl)piperidine-4-carboxamide] | > 100
Nc1n[nH]c(N2CCC(C(=O)NCc3cccc(F)c3)CC2)n1 [Example 196, 1-(3-amino-1H-1,2,4-triazol-5-yl)-N-(3-fluorobenzyl)piperidine-4-carboxamide] | > 100
COc1ccccc1CNC(=O)C1CCN(c2nc(N)n[nH]2)CC1 [Example 197, 1-(3-amino-1H-1,2,4-triazol-5-yl)-N-(2-methoxybenzyl)piperidine-4-carboxamide] | > 100
Cc1oc(C(F)(F)F)cc1CNC(=O)C1CCN(c2nc(N)n[nH]2)CC1 [Example 202, 1-(3-amino-1H-1,2,4-triazol-5-yl)-N-((2-methyl-5-(trifluoromethyl)furan-3-yl)methyl)piperidine-4-carboxamide] | > 100

Second part, the compound after the results:

IC50 [µM] | SMILES
< 0.1 | Cc1cccc(Cl)c1CN(CCc1ccc(Cl)cc1)C1CCN(c2nc(N)n[nH]2)CC1 [Example 161, 1-(3-amino-1H-1,2,4-triazol-5-yI)-N-(2-chloro-6-methylbenzyl)-N-(4-chlorophenethyl)piperidin-4-amine]
< 0.1 | Nc1n[nH]c(N2CCC(N(CCc3ccc(Cl)cc3)CCc3ccc(Cl)cc3)CC2)n1 [Example 162, 1-(3-amino-1H-1,2,4-triazol-5-yl)-N,N-bis(4-chlorophenethyl)piperidin-4-amine]
> 100 | CN(CCc1ccc(Br)cc1)C1CCN(c2nc(N)n(C)n2)CC1 [Example 166, 1-(5-amino-1-methyl-1H-1,2,4-triazol-3-yl)-N-(4-bromophenethyl)-N-methylpiperidin-4-amine]
< 0.1 | Nc1n[nH]c(N2CCC(N(CCc3ccc(Br)cc3)Cc3ccc(F)c4ccccc34)CC2)n1 [Example 167, 1-(3-amino-1H-1,2,4-triazol-5-yl)-N-(4-bromophenethyl)-N-((4-fluoronaphthalen-1-yl)methyl)piperidin-4-amine]
1 to 10 | CN(CCc1ccc2c(c1)OCO2)C1CCN(c2nc(N)n[nH]2)CC1 [Example 170, 1-(3-amino-1H-1,2,4-triazol-5-yl)-N-(2-(benzo[d][1,3]dioxol-5-yl)ethyl)-N-methylpiperidin-4-amine]
10 to 100 | COc1ccccc1CCN(C)C1CCN(c2nc(N)n[nH]2)CC1 [Example 172, 1-(3-amino-1H-1,2,4-triazol-5-yl)-N-(2-methoxyphenethyl)-N-methylpiperidin-4-amine]
10 to 100 | CN(C)c1ccc(CCN(C)C2CCN(c3nc(N)n[nH]3)CC2)cc1 [Example 178, 1-(3-amino-1H-1,2,4-triazol-5-yl)-N-(4-(dimethylamino)phenethyl)-N-methylpiperidin-4-amine]
0.1 to 1 | CN(CCc1cccc(C(F)(F)F)c1)C1CCN(c2nc(N)n[nH]2)CC1 [Example 180, 1-(3-amino-1H-1,2,4-triazol-5-yl)-N-methyl-N-(3-(trifluoromethyl)phenethyl)piperidin-4-amine]
10 to 100 | COc1ccc(OC)c(CCN(C)C2CCN(c3nc(N)n[nH]3)CC2)c1 [Example 182, 1-(3-amino-1H-1,2,4-triazol-5-yl)-N-(2,5-dimethoxyphenethyl)-N-methylpiperidin-4-amine]
10 to 100 | Nc1n[nH]c(N2CCC(N(CCc3ccc(Cl)cc3)CC(F)(F)F)CC2)n1 [Example 186, 1-(3-amino-1H-1,2,4-triazol-5-yl)-N-(4-chlorophenethyl)-N-(2,2,2-trifluoroethyl)piperidin-4-amine hydrochloride]
1 to 10 | Nc1n[nH]c(N2CCC(NS(=O)(=O)Cc3cccc(Br)c3)CC2)n1 [Example 191, N-(1-(3-amino-1H-1,2,4-triazol-5-yl)piperidin-4-yl)-1-(3-bromophenyl)methanesulfonamide]
1 to 10 | Nc1n[nH]c(N2CCC(NS(=O)(=O)Cc3cccc(C(F)(F)F)c3)CC2)n1 [Example 192, N-(1-(3-amino-1H-1,2,4-triazol-5-yl)piperidin-4-yl)-1-(3-(trifluoromethyl)phenyl)methanesulfonamide]
> 100 | Nc1n[nH]c(N2CCN(CCOc3ccccc3C(F)(F)F)CC2)n1 [Example 193, 5-(4-(2-(2-(trifluoromethyl)-phenoxy)ethyl)piperazin-1-yl)-1H-1,2,4-triazol-3-amine]
> 100 | Nc1n[nH]c(N2CCC(C(=O)NCc3ccccc3Cl)CC2)n1 [Example 198, 1-(3-amino-1H-1,2,4-triazol-5-yl)-N-(2-chlorobenzyl)piperidine-4-carboxamide]
> 100 | Nc1n[nH]c(N2CCC(C(=O)NCc3ccc(F)c(F)c3)CC2)n1 [Example 199, 1-(3-amino-1H-1,2,4-triazol-5-yl)-N-(3,4-difluorobenzyl)piperidine-4-carboxamide]
< 0.1 | CC(Cc1ccc(Cl)cc1)N(C)C1CCN(c2nc(N)n[nH]2)CC1 (stereo not shown) [Example 200, 1-(3-amino-1H-1,2,4-triazol-5-yl)-N-(1-(4-chlorophenyl)propan-2-yl)-N-methylpiperidin-4-amine]
> 100 | COc1ccc(CNC(=O)C2CCN(c3nc(N)n[nH]3)CC2)c(OC)c1 [Example 201, 1-(3-amino-1H-1,2,4-triazol-5-yl)-N-(2,4-dimethoxybenzyl)piperidine-4-carboxamide]
> 100 | Cc1ccc(C)c(CNC(=O)C2CCN(c3nc(N)n[nH]3)CC2)c1 [Example 204, 1-(3-amino-1H-1,2,4-triazol-5-yl)-N-(2,5-dimethylbenzyl)piperidine-4-carboxamide]
> 100 | Nc1n[nH]c(N2CCC(C(=O)NCc3ccc(OC(F)(F)F)cc3)CC2)n1 [Example 205, 1-(3-amino-1H-1,2,4-triazol-5-yl)-N-(4-(trifluoromethoxy)benzyl)piperidine-4-carboxamide]
> 100 | COc1ccc(CNC(=O)C2CCN(c3nc(N)n[nH]3)CC2)cc1 [Example 206, 1-(3-amino-1H-1,2,4-triazol-5-yl)-N-(4-methoxybenzyl)piperidine-4-carboxamide]
> 100 | Nc1n[nH]c(N2CCC(C(=O)NCC3CCC(F)(F)CC3)CC2)n1 [Example 207, 1-(3-amino-1H-1,2,4-triazol-5-yl)-N-((4,4-difluorocyclohexyl)methyl)piperidine-4-carboxamide]
> 100 | Nc1n[nH]c(N2CCC(CNC(=O)c3cccc(F)c3)CC2)n1 [Example 208, N-((1-(3-amino-1H-1,2,4-triazol-5-yl)piperidin-4-yl)methyl)-3-fluorobenzamide]
